Experimental data from ChEMBL document CHEMBL1201862, “PubChem BioAssay data set” (2004).
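Dose response: 5 concentrations. Exposure: 48 h. Format: 96-well plates. Endpoint: linear interpolation; highest concentration if not reached. At the GI50, growth is halved.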 Activity calls are given as the source filed them. Cut-off read from the data, not from the text of the source: active = GI50 up to about 1.1 µM and inactive = higher.

How the values were obtained:
Assay in all cases: DTP human tumour cell line panel, 48 h
HCT-15 = system: HCT-15
NCI-H522 = system: NCI-H522
TK-10 = system: TK-10
SK-OV-3 = system: SK-OV-3
OVCAR-3 = system: OVCAR-3
HOP-92 = system: HOP-92
K562 = system: K562
CAKI-1 = system: CAKI-1
OVCAR-5 = system: OVCAR-5
UACC-257 = system: UACC-257
LOX IMVI = system: LOX IMVI
UACC-62 = system: UACC-62
NCI-H460 = system: NCI-H460
A498 = system: A498
Malme-3M = system: Malme-3M
SF-539 = system: SF-539
U-251 = system: U-251

For `Brc1cc(C2OCCCO2)ccc1OCc1ccccc1`, the GI50 (HCT-15) was 48 µM, the GI50 (NCI-H522) was 26.9 µM (inactive) and the GI50 (TK-10) was 40.7 µM (inactive). For the same compound, the GI50 (SK-OV-3) was > 100 µM (inactive), the GI50 (OVCAR-3) was 74.1 µM (inactive) and the GI50 (HOP-92) was 33.6 µM (inactive). The GI50 (K562) was 34.5 µM (inactive), the GI50 (CAKI-1) was 54 µM (inactive) and the GI50 (OVCAR-5) was 29.6 µM (inactive). For the same compound, the GI50 (UACC-257) was 31.9 µM (inactive), the GI50 (LOX IMVI) was 25.8 µM (inactive) and the GI50 (UACC-62) was 47.9 µM (inactive). For the same compound, the GI50 (NCI-H460) was 50.9 µM (inactive), the GI50 (A498) was > 100 µM (inactive) and the GI50 (Malme-3M) was 31.8 µM (inactive). The GI50 (SF-539) was 64.3 µM (inactive).
In the case of `O=C1C=CC2(CCCCCCC2=O)CC1` (centres undefined), the GI50 (HCT-15) is reported as > 100 µM, the GI50 (NCI-H522) is reported as > 100 µM (inactive) and the GI50 (TK-10) is reported as > 100 µM (inactive). For the same compound, the GI50 (SK-OV-3) was > 100 µM (inactive), the GI50 (OVCAR-3) was > 100 µM (inactive) and the GI50 (HOP-92) was > 100 µM (inactive). For the same compound, the GI50 (CAKI-1) was > 100 µM (inactive), the GI50 (OVCAR-5) was > 100 µM (inactive) and the GI50 (UACC-257) was > 100 µM (inactive). For the same compound, the GI50 (U-251) was > 100 µM (inactive), the GI50 (LOX IMVI) was 44.9 µM (inactive) and the GI50 (UACC-62) was > 100 µM (inactive). The GI50 (NCI-H460) was > 100 µM (inactive), the GI50 (A498) was > 100 µM (inactive) and the GI50 (Malme-3M) was > 100 µM (inactive). The GI50 (SF-539) was > 100 µM (inactive).
`O=C(/C=C/c1c(O)ccc2ccccc12)c1ccccc1Cl` was tested, and the GI50 (HCT-15) was 36.4 µM, the GI50 (NCI-H522) was 26.7 µM (inactive) and the GI50 (TK-10) was > 100 µM (inactive). The GI50 (SK-OV-3) was > 100 µM (inactive), the GI50 (OVCAR-3) was 26.1 µM (inactive) and the GI50 (HOP-92) was 23.2 µM (inactive). The GI50 (K562) was 20.2 µM (inactive), the GI50 (CAKI-1) was 81.5 µM (inactive) and the GI50 (OVCAR-5) was > 100 µM (inactive). For the same compound, the GI50 (UACC-257) was 19.7 µM (inactive), the GI50 (U-251) was 37.8 µM (inactive) and the GI50 (LOX IMVI) was 24.2 µM (inactive). The GI50 (UACC-62) was 15.8 µM (inactive), the GI50 (NCI-H460) was 30.6 µM (inactive) and the GI50 (A498) was 82 µM (inactive). For the same compound, the GI50 (Malme-3M) was 18.5 µM (inactive) and the GI50 (SF-539) was 26.5 µM (inactive).
For `CN(C)c1ccc(/C=C(/C(=O)O)c2csc(-c3nc(/C(=C\c4ccc(N(C)C)cc4)C(=O)O)cs3)n2)cc1`, the GI50 (HCT-15) was 42.1 µM, the GI50 (TK-10) was > 100 µM (inactive) and the GI50 (SK-OV-3) was > 100 µM (inactive). For the same compound, the GI50 (OVCAR-3) was > 100 µM (inactive), the GI50 (HOP-92) was > 100 µM (inactive) and the GI50 (K562) was 41.7 µM (inactive). The GI50 (CAKI-1) was > 100 µM (inactive), the GI50 (OVCAR-5) was > 100 µM (inactive) and the GI50 (UACC-257) was > 100 µM (inactive). For the same compound, the GI50 (U-251) was > 100 µM (inactive), the GI50 (LOX IMVI) was 73.8 µM (inactive) and the GI50 (UACC-62) was 80.9 µM (inactive). The GI50 (NCI-H460) was > 100 µM (inactive), the GI50 (A498) was > 100 µM (inactive) and the GI50 (Malme-3M) was > 100 µM (inactive). The GI50 (SF-539) was > 100 µM (inactive).
With `O=C1C2CC=CCC2C(=O)C12CCc1ccccc12` (centres undefined) the GI50 (HCT-15) was > 100 µM, the GI50 (TK-10) was > 100 µM (inactive) and the GI50 (SK-OV-3) was > 100 µM (inactive). For the same compound, the GI50 (OVCAR-3) was > 100 µM (inactive), the GI50 (HOP-92) was > 100 µM (inactive) and the GI50 (K562) was > 100 µM (inactive). For the same compound, the GI50 (CAKI-1) was > 100 µM (inactive), the GI50 (U-251) was > 100 µM (inactive) and the GI50 (LOX IMVI) was > 100 µM (inactive). For the same compound, the GI50 (UACC-62) was > 100 µM (inactive), the GI50 (NCI-H460) was > 100 µM (inactive) and the GI50 (Malme-3M) was > 100 µM (inactive).
`COc1ccc(C(Cl)=C(c2ccc(OCCN(C)C)cc2)c2ccc(OCCN(C)C)cc2)cc1` was tested, and the GI50 (HCT-15) was 1.59 µM, the GI50 (NCI-H522) was 1.57 µM (inactive) and the GI50 (TK-10) was 17.1 µM (inactive). For the same compound, the GI50 (SK-OV-3) was 2.53 µM (inactive), the GI50 (OVCAR-3) was 2.09 µM (inactive) and the GI50 (HOP-92) was 2.16 µM (inactive). The GI50 (K562) was 1.37 µM (inactive), the GI50 (CAKI-1) was 4.6 µM (inactive) and the GI50 (OVCAR-5) was 1.73 µM (inactive). For the same compound, the GI50 (U-251) was 1.58 µM (inactive), the GI50 (UACC-62) was 1.7 µM (inactive) and the GI50 (NCI-H460) was 1.82 µM (inactive). The GI50 (Malme-3M) was 1.81 µM (inactive) and the GI50 (SF-539) was 1.57 µM (inactive).
In the case of `Cc1nc2nnnn2c2c1C(=O)Nc1ccccc1N2`, the GI50 (NCI-H522) is reported as > 100 µM (inactive), the GI50 (TK-10) is reported as > 100 µM (inactive) and the GI50 (SK-OV-3) is reported as > 100 µM (inactive). For the same compound, the GI50 (OVCAR-3) was > 100 µM (inactive), the GI50 (HOP-92) was > 100 µM (inactive) and the GI50 (K562) was > 100 µM (inactive). For the same compound, the GI50 (UACC-257) was > 100 µM (inactive), the GI50 (U-251) was > 100 µM (inactive) and the GI50 (LOX IMVI) was > 100 µM (inactive). The GI50 (UACC-62) was > 100 µM (inactive), the GI50 (NCI-H460) was 28.4 µM (inactive) and the GI50 (Malme-3M) was > 100 µM (inactive). For the same compound, the GI50 (SF-539) was > 100 µM (inactive).
With `COc1ccc(CNc2cnc3ccc(N)cc3n2)cc1` the GI50 (HCT-15) was > 100 µM, the GI50 (NCI-H522) was > 100 µM (inactive) and the GI50 (TK-10) was > 100 µM (inactive). For the same compound, the GI50 (OVCAR-3) was > 100 µM (inactive), the GI50 (K562) was > 100 µM (inactive) and the GI50 (CAKI-1) was > 100 µM (inactive). For the same compound, the GI50 (OVCAR-5) was > 100 µM (inactive), the GI50 (UACC-257) was > 100 µM (inactive) and the GI50 (LOX IMVI) was > 100 µM (inactive). The GI50 (NCI-H460) was > 100 µM (inactive), the GI50 (Malme-3M) was > 100 µM (inactive) and the GI50 (SF-539) was > 100 µM (inactive).
`NC1(CCCCCCCCCCC(=O)O)CNCCNCCNCCNC1` was tested, and the GI50 (NCI-H522) was 55.5 µM (inactive), the GI50 (TK-10) was 31.2 µM (inactive) and the GI50 (SK-OV-3) was 63.8 µM (inactive). The GI50 (OVCAR-3) was 59 µM (inactive), the GI50 (K562) was 33.8 µM (inactive) and the GI50 (CAKI-1) was 84.1 µM (inactive). For the same compound, the GI50 (OVCAR-5) was 16 µM (inactive), the GI50 (UACC-257) was > 100 µM (inactive) and the GI50 (UACC-62) was 47.6 µM (inactive). The GI50 (NCI-H460) was 26.6 µM (inactive), the GI50 (A498) was 13.7 µM (inactive) and the GI50 (Malme-3M) was 78.3 µM (inactive). The GI50 (SF-539) was 54.1 µM (inactive).
With `O=C(Cc1nc2ccccc2s1)NC12CC3CC(CC(C3)C1)C2` the GI50 (HCT-15) was > 100 µM, the GI50 (NCI-H522) was > 100 µM (inactive) and the GI50 (TK-10) was > 100 µM (inactive). For the same compound, the GI50 (SK-OV-3) was > 100 µM (inactive), the GI50 (HOP-92) was > 100 µM (inactive) and the GI50 (K562) was > 100 µM (inactive). The GI50 (CAKI-1) was > 100 µM (inactive), the GI50 (UACC-257) was > 100 µM (inactive) and the GI50 (U-251) was > 100 µM (inactive). For the same compound, the GI50 (LOX IMVI) was > 100 µM (inactive), the GI50 (UACC-62) was > 100 µM (inactive) and the GI50 (NCI-H460) was > 100 µM (inactive). The GI50 (A498) was > 100 µM (inactive), the GI50 (Malme-3M) was > 100 µM (inactive) and the GI50 (SF-539) was > 100 µM (inactive).
